Experiment [1] addresses RIPK1 (Homo sapiens (Human), UniProt Q13546). The experiment in a line: biochemical. Type of experiment: biochemical. Put shortly: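 ADP-Glo luminescent assay of RIPK1 at 31 ng/well in Tris-HCl pH 7.4 buffer with MgCl2, BSA, 100 μM DTT and 4 mM MnCl2; compounds run in duplicate. Kinase reaction 30 min at 30 °C, then ADP-Glo 40 min and detection reagent 30 min at room temperature; ADP formation read as luminescence.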

Experiment [2] relates to U937 cells. The experiment in a line: U937 cell necroptosis assay (TNFa + zVAD, CellTiter-Glo recovery), functional human RIP1 assay. The note with it: Homo sapiens, U-937, 18 h, read-out: U937 Zvad TNF CTG Recovery, U937, TNFa + zVAD (IC50), U937 cells, zVAD-fmk, TNFa 2 ng/mL, 18 hours, CellTiter-Glo. The experiment is classed as cell-based. Put shortly: (§1)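 Human U937 cells (50K/well, 60 uM zVAD-fmk in plating medium) and murine L929 cells (10K/well, medium replaced with 40 uM zVAD-fmk) were pre-incubated with compound 1 h at 37 °C. TNFa was then added at a final 2 ng/mL. Viability by CellTiter-Glo luminescence after 18 h.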
For orientation: In ATP-based viability assays light output follows the ATP content of the culture.

Experiment [3] has as its system L929 cells. The experiment in a line: L929 cell necroptosis assay (TNFa + zVAD, CellTiter-Glo recovery), functional murine RIP1 assay. As to conditions: Mus musculus, L929, 18 h, read-out: L929-CTG-recovery, L929, TNFa + zVAD (IC50), L929 cells, zVAD-fmk, TNFa 2 ng/mL, 18 hours, CellTiter-Glo. Type of experiment: cell-based. Put shortly: as §1
Setting [4] is: RIPK1 enzyme 31 ng/well, 30° C. for 30 minutes, luminescence, read-out: RIPK1 ADP-Glo Kinase (IC50).

Where two headings read alike, the source gives them in different places.

Sequence of RIPK1 (Q13546 whole entry, species assumed): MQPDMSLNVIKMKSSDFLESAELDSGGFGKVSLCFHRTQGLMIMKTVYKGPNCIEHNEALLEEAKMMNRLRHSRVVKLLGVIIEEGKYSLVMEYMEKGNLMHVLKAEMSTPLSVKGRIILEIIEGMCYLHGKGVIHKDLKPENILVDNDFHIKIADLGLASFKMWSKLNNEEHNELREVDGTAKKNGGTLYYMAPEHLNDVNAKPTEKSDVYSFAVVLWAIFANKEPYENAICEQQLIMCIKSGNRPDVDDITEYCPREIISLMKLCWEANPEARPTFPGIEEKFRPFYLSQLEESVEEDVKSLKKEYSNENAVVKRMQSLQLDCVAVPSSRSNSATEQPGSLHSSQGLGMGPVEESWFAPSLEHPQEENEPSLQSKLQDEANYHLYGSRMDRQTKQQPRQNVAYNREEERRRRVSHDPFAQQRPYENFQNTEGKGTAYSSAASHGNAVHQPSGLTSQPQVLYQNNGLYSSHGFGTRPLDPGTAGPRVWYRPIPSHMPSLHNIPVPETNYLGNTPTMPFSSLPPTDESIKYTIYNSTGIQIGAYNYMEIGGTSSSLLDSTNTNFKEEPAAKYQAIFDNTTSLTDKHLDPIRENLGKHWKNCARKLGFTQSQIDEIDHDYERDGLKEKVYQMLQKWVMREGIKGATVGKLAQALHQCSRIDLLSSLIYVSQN

On to `O=C(NC1CCc2ccccc2-n2c(Cl)cnc21)c1n[nH]c(Cc2ccccc2)n1` (racemic) [Compound I-81, (±)-5-Benzyl-N-(1-chloro-5,6-dihydro-4H-benzo[f]imidazo[1,2-a]azepin-4-yl)-1H-1,2,4-triazole-3-carboxamide], for which the values for the IC50 in experiment [1] (setting [4]), in experiment [2] and in experiment [3] were 0.517 µM, 4.25 µM and 10000 µM, respectively.
`O=C(NC1CCc2ccc(N3CC4(CCOCC4)C3)cc2-n2ccnc21)c1n[nH]c(Cc2ccccc2)n1` (racemic) [Compound I-84, (±)-N-(9-(7-Oxa-2-azaspiro[3.5]nonan-2-yl)-5,6-dihydro-4H-benzo[f]imidazo[1,2-a]azepin-4-yl)-5-benzyl-1H-1,2,4-triazole-3-carboxamide]: the IC50 turned out to be 0.119 µM in experiment [1], 0.0386 µM in experiment [2] and 8.79 µM in experiment [3].
As to `O=C(NC1CCc2ccc(N3CC4(CCOCC4)C3)cc2-n2ccnc21)c1ccn(Cc2ccccc2)n1` (racemic) [Compound I-85, (±)-N-(9-(7-Oxa-2-azaspiro[3.5]nonan-2-yl)-5,6-dihydro-4H-benzo[f]imidazo[1,2-a]azepin-4-yl)-1-benzyl-1H-pyrazole-3-carboxamide], the IC50 in experiment [1] (setting [4]) is 0.168 µM; in experiment [2] it was 0.0309 µM; in experiment [3], 1.35 µM.
Consider `CC(C)(O)C#Cc1ccc2c(c1)-n1ccnc1C(NC(=O)n1cc(Cc3ccc(F)cc3)cn1)CC2` (racemic) [Compound I-93, (±)-4-(4-Fluorobenzyl)-N-(9-(3-hydroxy-3-methylbut-1-yn-1-yl)-5,6-dihydro-4H-benzo[f]imidazo[1,2-a]azepin-4-yl)-1H-pyrazole-1-carboxamide], for which the IC50 stood at 0.0404 µM in experiment [1] (setting [4]), 0.0371 µM in experiment [2] and 5.17 µM in experiment [3].
Regarding `O=C(N[C@H]1COc2ccccc2-n2nnnc21)c1n[nH]c(Cc2ccccc2)n1` [Compound I-3, (R)-5-Benzyl-N-(4,5-dihydrobenzo[b]tetrazolo[1,5-d][1,4]oxazepin-4-yl)-1H-1,2,4-triazole-3-carboxamide], the IC50 in experiment [1] (setting [4]) amounted to 0.0582 µM; in experiment [2] it was 4.08 µM; in experiment [3], 10000 µM.
On to `O=C(N[C@H]1COc2ccccc2-n2nnnc21)c1cc(Cc2ccccc2)on1` [Compound I-8, (R)-5-Benzyl-N-(4,5-dihydrobenzo[6]tetrazolo[1,5-d][1,4]oxazepin-4-yl)isoxazole-3-carboxamide], for which the values for the IC50 in experiment [1] (setting [4]), in experiment [2] and in experiment [3] were 0.521 µM, 4.45 µM and 10000 µM, respectively.
Take `O=C(N[C@H]1COc2ccccc2-n2nnnc21)c1ncn(Cc2c(Cl)cccc2Cl)n1` [Compound I-11, (R)-1-(2,6-Dichlorobenzyl)-N-(4,5-dihydrobenzo[6]tetrazolo[1,5-d][1,4]oxazepin-4-yl)-1H-1,2,4-triazole-3-carboxamide]: the IC50 in experiment [1] (setting [4]) worked out at 0.0178 µM; in experiment [2] it was 0.0343 µM; in experiment [3], 10000 µM.
On to `O=C(N[C@H]1COc2ccccc2-n2nnnc21)c1ncn(Cc2ccccc2F)n1` [Compound I-21, (R)—N-(4,5-Dihydrobenzo[b]tetrazolo[1,5-d][1,4]oxazepin-4-yl)-1-(2-fluorobenzyl)-1H-1,2,4-triazole-3-carboxamide], for which the IC50 in experiment [1] (setting [4]) was found to be 0.0567 µM; in experiment [2], 0.0625 µM; in experiment [3], 160 µM.
Turning to `O=C(N[C@H]1CSc2ccccc2-n2nnnc21)c1ncn(Cc2ccc(F)cc2)n1` [Compound I-22, (R)—N-(4,5-Dihydrobenzo[b]tetrazolo[1,5-d][1,4]thiazepin-4-yl)-1-(4-fluorobenzyl)-1H-1,2,4-triazole-3-carboxamide], the IC50 turned out to be 0.0321 µM in experiment [1] (setting [4]), 0.002 µM in experiment [2] and 2.48 µM in experiment [3].
For `O=C(N[C@H]1CSc2ccccc2-n2nnnc21)c1cc(Cc2ccccc2)on1` [Compound I-23, (R)-5-Benzyl-N-(4,5-dihydrobenzo[b]tetrazolo[1,5-d][1,4]thiazepin-4-yl)isoxazole-3-carboxamide], in that order: 0.0429 µM, 0.101 µM and 10000 µM.
As for `O=C(N[C@H]1CSc2ccccc2-n2nnnc21)c1n[nH]c(Cc2ccccc2)n1` [Compound I-24, (R)-5-Benzyl-N-(4,5-dihydrobenzo[b]tetrazolo[1,5-d][1,4]thiazepin-4-yl)-1H-1,2,4-triazole-3-carboxamide], the values for the IC50 in experiment [1] (setting [4]), in experiment [2] and in experiment [3] were 0.0272 µM, 0.0144 µM and 2.14 µM, respectively.
Regarding `O=C(N[C@H]1CS(=O)(=O)c2ccccc2-n2nnnc21)c1cc(Cc2ccccc2)on1` [Compound I-25, (R)-5-Benzyl-N-(6,6-dioxido-4,5-dihydrobenzo[b]tetrazolo[1,5-d][1,4]thiazepin-4-yl)isoxazole-3-carboxamide], the IC50 in experiment [1] (setting [4]) is 0.51 µM; in experiment [2], 28.6 µM; in experiment [3] it was 10000 µM.
Take `O=C(N[C@H]1C[S+]([O-])c2ccccc2-n2nnnc21)c1cc(Cc2ccccc2)on1` (stereo partly drawn) [Compound I-26, 5-Benzyl-N-((4R)-6-oxido-4,5-dihydrobenzo[b]tetrazolo[1,5-d][1,4]thiazepin-4-yl)isoxazole-3-carboxamide]: the IC50 in experiment [1] (setting [4]) was 1.37 µM; in experiment [2] it was 0.176 µM; in experiment [3] it was 10000 µM.
For `O=C(N[C@H]1CSc2ccccc2-n2c1noc2=O)c1cc(Cc2ccccc2)on1` [Compound I-28, 5-Benzyl-N-((4R)-1-oxo-4,5-dihydro-1H-benzo[b][1,2,4]oxadiazolo[4,3-d][1,4]thiazepin-4-yl)isoxazole-3-carboxamide], in that order: 0.0679 µM, 0.0165 µM and 10.7 µM.
On to `O=C(N[C@H]1CSc2ccccc2-n2nnnc21)c1n[nH]c(Cc2ccc(F)cc2)n1` [Compound I-30, (R)—N-(4,5-Dihydrobenzo[&]tetrazolo[1,5-d][1,4]thiazepin-4-yl)-5-(4-fluorobenzyl)-1H-1,2,4-triazole-3-carboxamide], for which the IC50 in experiment [1] (setting [4]) is 0.0186 µM; in experiment [2] it was 0.0679 µM; in experiment [3], 10000 µM.
With `O=C(N[C@H]1CSc2ccccc2-n2c1noc2=O)c1n[nH]c(Cc2ccc(F)cc2)n1` [Compound I-31, 5-(4-Fluorobenzyl)-N-((4R)-1-oxo-4,5-dihydro-1H-benzo[6][1,2,4]oxadiazolo[4,3-d][1,4]thiazepin-4-yl)-1H-1,2,4-triazole-3-carboxamide], the values for the IC50 in experiment [1] (setting [4]), in experiment [2] and in experiment [3] were 0.0158 µM, 0.014 µM and 5010 µM, respectively.
On to `O=C(N[C@H]1CSc2ccccc2-n2c1noc2=O)c1ncn(Cc2ccc(F)cc2)n1` [Compound I-32, 1-(4-Fluorobenzyl)-N-((4R)-1-oxo-4,5-dihydro-1H-benzo[b][1,2,4]oxadiazolo[4,3-d][1,4]thiazepin-4-yl)-1H-1,2,4-triazole-3-carboxamide], for which the figures for the IC50 in experiment [1] (setting [4]), in experiment [2] and in experiment [3] were 0.0133 µM, 0.0016 µM and 0.674 µM, respectively.
With `O=C(N[C@H]1CSc2ccccc2-n2c1noc2=O)c1n[nH]c(Cc2ccccc2)n1` [Compound I-33, 5-Benzyl-N-((4R)-1-oxo-4,5-dihydro-1H-benzo[b][1,2,4]oxadiazolo[4,3-d][1,4]thiazepin-4-yl)-1H-1,2,4-triazole-3-carboxamide], the IC50 came out at 0.0125 µM in experiment [1] (setting [4]), 0.0056 µM in experiment [2] and 5.16 µM in experiment [3].
In the case of `O=C(N[C@H]1COc2ccccc2-n2c1noc2=O)c1n[nH]c(Cc2ccccc2)n1` [Compound I-41, 5-Benzyl-N-((4R)-1-oxo-4,5-dihydro-1H-benzo[6][1,2,4]oxadiazolo[4,3-d][1,4]oxazepin-4-yl)-1H-1,2,4-triazole-3-carboxamide], the IC50 amounted to 0.058 µM in experiment [1] (setting [4]), 0.0481 µM in experiment [2] and 10000 µM in experiment [3].
Turning to `O=C(N[C@H]1COc2ccccc2-n2c1noc2=O)c1ncn(Cc2c(Cl)cccc2Cl)n1` [Compound I-42, 1-(2,6-Dichlorobenzyl)-N-((4R)-1-oxo-4,5-dihydro-1H-benzo[&][1,2,4]oxadiazolo[4,3-d][1,4]oxazepin-4-yl)-1H-1,2,4-triazole-3-carboxamide], the IC50 turned out to be 0.0263 µM in experiment [1] (setting [4]), 0.041 µM in experiment [2] and 10000 µM in experiment [3].
Take `O=C(N[C@H]1COc2ccccc2-n2c1noc2=O)c1cc(Cc2ccccc2)on1` [Compound I-43, 5-benzyl-N-((4R)-1-oxo-4,5-dihydro-1H-benzo[b][1,2,4]oxadiazolo[4,3-d][1,4]oxazepin-4-yl)isoxazole-3-carboxamide]: the IC50 in experiment [1] (setting [4]) came to 0.11 µM; in experiment [2], 0.205 µM; in experiment [3], 10000 µM.
For `O=C(N[C@H]1COc2ncccc2-n2c1noc2=O)c1cc(Cc2ccccc2)on1` [Compound I-46, 5-Benzyl-N-((4R)-1-oxo-4,5-dihydro-1H-[1,2,4]oxadiazolo[4,3-d]pyrido[2,3-b][1,4]oxazepin-4-yl)isoxazole-3-carboxamide], the IC50 in experiment [1] (setting [4]) stood at 4.41 µM; in experiment [2] it was 39.4 µM; in experiment [3], 10000 µM.
Take `O=C(N[C@H]1COc2ccccc2-n2c1noc2=O)c1n[nH]c(Cc2ccc(F)cc2F)n1` [Compound I-49, 5-(2,4-Difluorobenzyl)-N-((4R)-1-oxo-4,5-dihydro-1H-benzo[b][1,2,4]oxadiazolo[4,3-d][1,4]oxazepin-4-yl)-1H-1,2,4-triazole-3-carboxamide]: the IC50 turned out to be 0.347 µM in experiment [1] (setting [4]), 0.717 µM in experiment [2] and 10000 µM in experiment [3].

The record behind these values is patent US11667643B2, “RIP1K inhibitors” (priority 2020, dated 2023).
